The values below come from patent publication US20250326725A1, “PI4-Kinase Inhibitors and Methods of Using the Same” (The Board of Trustees of the Leland Stanford Junior …, priority 2019, published 2025).

The structures appear in SMILES notation.

Data set [1] deals with T1, PI4KIIIalpha (Homo sapiens, UniProt P42356).
T1 construct: made in house; host or cells: COS-7 cells, transient transfection, anti-HA immunoprecipitate on protein G Sepharose beads
Nature of the data set: PI-kinase assay, PI4KIIIalpha (Table 4). The data set is classed as biochemical. On the procedure: (§1) PI-kinase assay: Compounds are tested in C.1.1. PT kinase assays as described by Shokat et al., “A membrane capture assay for lipid kinase activity.” Nat. Protoc. 2007; 2(10):2459-66.
(§2) General methods of materials: In the assays described here, p110α-p85 complex and p110γ were acquired from Millipore. Assays were performed with La-phosphatidylinositol (Avanti) as described in Knight et al. Nat Protoc. 2007; 2 (10):2459-66. Inhibitor series were prepared 10% DMSO as 5× stocks for the assay. Assays of HsVps34 were performed as described in Knight et al, except that the final assay buffer composition used was changed to 20 mM HEPES 7.5, 100 mM NaCl, 3 mM MgCl, 1 mg/mL PI and 44 nM hvps34 was used in the assay. […] COS-7 cells were cultured in 10 cm dishes and transfected at 70% confluence with 10 μg of plasmid DNA (HA-tagged bovine PI4KIIIβ. HA-tagged human PI4KIIIα) using Lipofectamine 2000 and 5 ml Opti-MEM following the manufacturer's instructions. After 5 hours the transfection medium was replaced with 10 ml complete DMEM. 36 hrs post transfection, cells were washed once with 5 ml PBS (pH 7.4) and lysed in 1 ml of lysis buffer (1) on ice. Lysates were collected by scraping and after 15 min they were centrifuged at 13.000 rpm for 10 min. To the lysates was added 200 gi of protein G Sepharose 4 fast flow beads that were prewashed with PBS and lysis buffer and 2 sg of anti-HA antibody. The tubes were then incubated overnight at 4 degrees C. in a tube rotator. The Sepharose beads in the lysate were washed twice with 150 mM NaCl in RIPA buffer, twice with RIPA buffer and once with kinase buffer (50 mM Tris/HCl, pH 7.5, 20 mM MgCl2, 1 mM EFTA, 1 mM PtdIns, 0.4% Triton X-100, 0.5 mg/mL BSA) and finally the beads were resuspended in 200 μL kinase buffer. Kinase reactions were run in a mixture of 45 μL of PI buffer (1 mM P1 in kinase buffer), 10 μL of immunoprecipitated beads, 2 µL of inhibitors (dissolved and diluted in DMSO) or DMSO and 5 μL of [γ-^32P]-ATP (1 mM and 2 μCi/tube). The immunoprecipitates in PI buffer were pre-incubated with the drugs for 20 min prior the initiation of kinase reaction by adding ATP and the reactions were carried out for 30 min in 15 ml polyproplyene tubes. Reactions were terminated by addition of 3 ml of CHCl3:CH3OH:HCl (200:100:0.75) followed by 0.6 ml of 0.61N HCl to induce phase separation. The mixtures were vortexed, centrifuged at 2000 rpm for 2 min and the upper phase was discarded. To the lower phase was added 1.5 ml of CHCl3:CH3OH:0.6N HCl (3:48:47) and the mixture vortexed and centrifuged at 2000 rpm for 2 ruin. The lower phase was then transferred to counting vials and evaporated. Samples were counted in a scintillation beta counter after adding 5 ml of Instafluor (Perkin-Elmer).
(§3) Selected compounds of Tables 1-3 were prepared and tested for inhibition activity in a variety of kinase assays.

Data set [2] can be described thus: Cell toxicity (CC50) in HPV assay.
The target of data set [3] is T2, PI4KIIIbeta (Bos taurus, UniProt O02810).
T2 construct: made in house; host or cells: COS-7 cells, transient transfection, anti-HA immunoprecipitate on protein G Sepharose beads
Nature of the data set: PI-kinase assay, PI4KIIIbeta (Table 4). Format: biochemical, bovine. On the procedure:
as §1, §2, §3

In data set [4] the test system is lung cancer cell lines. Nature of the data set: PI4P levels in lung cancer cell lines. Format: cell-based, human. The note with it: panel of lung cancer cell lines. How it is done:
(§4) Human lung cancer cells (A549, H1299, H460, H23, H2122, and H3122) were cultured in RPMI 1640 containing 10% FBS. Cells were maintained at 37° C. in an incubator with a humidified atmosphere containing 5% CO2.
(§5) To assess the anti-cancer activity of exemplary PI4K antagonists, a panel of lung cancer cell lines annotated for the presence or absence of PI4K amplifications were treated with PI4K inhibitors (IN-9, TN-10, or compound B) that have greater than 1000-fold selectivity […] PI4KIIIβ over class I and class III PI3K family members. […] IC50 values were even lower with the presence of PI4K amplifications.
(§6) PI4KIIIβ is a target in human cancers, including lung adenocarcinoma. (FIG. 1A). PI4P concentrations in H2122 cells (dots) treated in triplicate (dots) with Compound B or vehicle dimethyl sulfoxide (DMS). (FIG. 1B) Relative densities of PI4-kinase-amplified (red) and -diploid (black) human lung adenocarcinoma cell lines determined by WST-1 assays after 5 days of Compound B treatment. Results expressed relative to the lowest dose, which was set at 100%. (FIG. 1B, right panel) Half maximal inhibitory (IC50) concentrations of compound B determined from FIG. 1B, left panel. (FIG. 1C) Migrated and invaded 1-23 human lung adenocarcinoma cells in Transwell chambers were photographed (images) and counted (bar graphs) after treatment with compound B. Results expressed relative to DMSO-treated cells, which were set at 1.0. (FIG. 1C, right panel). Colonies formed by H2122 human lung cancer cells in soft agarose (FIG. 1D) and on plastic (FIG. 1E) were photographed (images) and counted (bar graphs) after 7 days of treatment with the indicated doses of compound B or vehicle DMSO (0 M). Results expressed relative to DMSO control, which were set at 1.0. PI4-kinase inhibition leads to selective cytotoxicity for cancer cells (FIG. 1F).

In data set [5] the test system is BK virus (Polyomaviridae). As to the kind of experiment: BK virus antiviral assay (EC50). Format: cell-based. The following applies: Betapolyomavirus hominis.
Data set [6] deals with Human HPV (Papillomaviridae). As to the kind of experiment: Human HPV antiviral assay (EC50). The data set is classed as cell-based, human papilloma virus. The following applies: Human papillomavirus, read-out: Human HPV (Papillomaviridae) EC50.
Data set [7] deals with EV-71 virus. As to the kind of experiment: Survival of AG129 mice challenged with EV-71. The data set is classed as in vivo. The note with it: EV-71 10^6.5 CCID50/mouse i.p., treated b.i.d. for five days per os starting four hours post-infection. On the procedure: FIG. 4 illustrates the survival of four-week-old AG129 mice challenged with EV-71 virus and treated with exemplary Compound B. Groups of eight AG129 nice were challenged with EV-71 at 10^6.5 CCID50/mouse via the i.p. route. Mice were treated b.i.d. for five days per os with doses of Compound B as shown, starting four hours post-infection. Placebo-treated mice received a vehicle control on the same schedule. Mice treated with IVIg, as a positive control, received a single administration of 100 mg/kg via the i.p. route four hours post-infection. […] (*P<0.05, **P<0.01).

The test system of data set [8] is lung cancer cell lines. As to the kind of experiment: Colony formation in soft agar and on plastic. Format: cell-based, human. The following applies: panel of lung cancer cell lines. How it is done: as §4, §5, §6
The test system of data set [9] is H2122 human orthotopic lung tumors. Nature of the data set: H2122 human orthotopic lung tumors in nu/nu mice. Format: in vivo. The following applies: 20 or 40 mg/kg plus 20 mg/kg ritonavir, subcutaneously twice daily for three weeks. How it is done:
Mice received standard care and were euthanized according to the standards set forth by the Institutional Animal Care and Use Committee. To generate orthotopic lung tumors using human lung adenocarcinoma cell lines, nu/nu mice (n=10 mice per cohort) were subjected to intrathoracic injection with 10^6 human tumor cells, necropsied after a week or more of treatment, and primary tumor size and the number of metastases on the contralateral lung surface measured. […] Drugs were administered subcutaneously twice daily for three weeks. On the last day of treatment, mice were subjected to micro-computed tomography to measure primary tumor size. The following day, mice were necropsied to measure primary tumor size, count metastases to the contralateral lung, and obtain lung tissues for analysis. […] Drugs were administered intraperitoneally twice daily for 8 days. On the last day of treatment, mice were subjected to micro-computed tomography to measure primary tumor size. The following day, mice were necropsied to measure primary tumor size, count metastases to the contralateral lung, and obtain lung tissues.

The nature of data set [10]: Cell toxicity (CC50) in BK virus assay.
Data set [11] deals with lung cancer cell lines. As to the kind of experiment: Cell proliferation in monolayer culture (WST-1). Format: cell-based, human. The note with it: panel of lung cancer cell lines. On the procedure:
as §4, §5, §6

In data set [12] the test system is lung cancer cell lines. As to the kind of experiment: Migration and invasion in Boyden chambers. Format: cell-based, human. The note with it: panel of lung cancer cell lines. On the procedure:
as §4, §5, §6

Data set [13] has as its target PI4K2α (Homo sapiens, UniProt Q9BTU6). The note with it: at concentrations up to 20 μM; cited from earlier work.
For data set [14], the target named is PI4K2β (Homo sapiens, UniProt Q8TCG2). The following applies: at concentrations up to 20 μM; cited from earlier work.
Data set [15] addresses PI3Kβ (Homo sapiens, UniProt P42338). The following applies: at concentrations up to 20 μM; cited from earlier work.
For data set [16], the target named is PI3KC2γ (Homo sapiens, UniProt O75747). The note with it: cited from earlier work.
The target in data set [17] is PI3Kα (Homo sapiens, UniProt P42336). The note with it: cited from earlier work.

Chain of PI3Kβ (P42338 whole entry, species assumed): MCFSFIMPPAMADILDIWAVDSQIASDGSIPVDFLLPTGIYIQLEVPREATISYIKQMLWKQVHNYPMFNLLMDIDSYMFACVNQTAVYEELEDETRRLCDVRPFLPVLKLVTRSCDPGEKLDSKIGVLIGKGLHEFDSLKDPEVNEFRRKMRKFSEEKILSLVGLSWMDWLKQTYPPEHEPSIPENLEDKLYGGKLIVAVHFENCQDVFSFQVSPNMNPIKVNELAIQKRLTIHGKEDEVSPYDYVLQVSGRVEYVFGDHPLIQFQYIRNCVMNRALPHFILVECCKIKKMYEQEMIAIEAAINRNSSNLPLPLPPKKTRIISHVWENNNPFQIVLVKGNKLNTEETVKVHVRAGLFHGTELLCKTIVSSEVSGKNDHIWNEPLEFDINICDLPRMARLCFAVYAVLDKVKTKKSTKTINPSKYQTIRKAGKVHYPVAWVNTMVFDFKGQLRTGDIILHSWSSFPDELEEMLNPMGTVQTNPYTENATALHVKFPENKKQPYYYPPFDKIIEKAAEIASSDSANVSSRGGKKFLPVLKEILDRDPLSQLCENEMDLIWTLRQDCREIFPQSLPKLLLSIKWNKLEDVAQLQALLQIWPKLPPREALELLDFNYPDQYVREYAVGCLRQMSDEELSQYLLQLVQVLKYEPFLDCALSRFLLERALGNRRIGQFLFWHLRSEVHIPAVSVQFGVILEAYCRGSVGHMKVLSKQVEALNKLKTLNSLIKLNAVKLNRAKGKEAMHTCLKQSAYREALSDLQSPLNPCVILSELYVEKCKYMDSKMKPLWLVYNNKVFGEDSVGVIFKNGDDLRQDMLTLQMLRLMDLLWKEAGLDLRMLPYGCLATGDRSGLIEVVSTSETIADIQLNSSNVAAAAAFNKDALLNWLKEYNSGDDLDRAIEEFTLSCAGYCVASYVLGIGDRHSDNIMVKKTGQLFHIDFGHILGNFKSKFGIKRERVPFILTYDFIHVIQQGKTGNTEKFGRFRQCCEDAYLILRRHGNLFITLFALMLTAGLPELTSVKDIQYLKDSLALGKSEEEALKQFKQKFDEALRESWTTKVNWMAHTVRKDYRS
Chain of PI3Kβ (P27986 whole entry partner, species assumed): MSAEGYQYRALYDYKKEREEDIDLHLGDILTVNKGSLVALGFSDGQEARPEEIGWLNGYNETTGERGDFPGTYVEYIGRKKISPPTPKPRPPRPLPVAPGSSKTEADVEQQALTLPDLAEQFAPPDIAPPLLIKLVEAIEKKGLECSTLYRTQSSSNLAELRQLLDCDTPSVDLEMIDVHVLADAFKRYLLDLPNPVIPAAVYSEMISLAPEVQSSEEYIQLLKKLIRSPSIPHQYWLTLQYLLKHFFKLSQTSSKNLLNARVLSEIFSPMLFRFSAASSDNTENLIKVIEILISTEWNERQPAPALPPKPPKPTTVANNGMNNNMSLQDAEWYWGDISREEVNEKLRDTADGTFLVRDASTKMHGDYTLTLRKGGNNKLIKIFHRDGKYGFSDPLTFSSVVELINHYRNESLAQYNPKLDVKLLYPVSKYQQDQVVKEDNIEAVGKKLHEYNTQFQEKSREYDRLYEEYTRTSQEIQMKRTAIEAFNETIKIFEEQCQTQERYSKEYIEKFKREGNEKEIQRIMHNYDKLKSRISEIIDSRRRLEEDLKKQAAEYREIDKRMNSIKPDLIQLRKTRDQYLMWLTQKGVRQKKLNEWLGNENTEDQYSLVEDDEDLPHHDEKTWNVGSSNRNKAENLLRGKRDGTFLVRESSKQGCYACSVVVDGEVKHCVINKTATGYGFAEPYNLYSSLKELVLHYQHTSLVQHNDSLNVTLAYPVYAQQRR
T1 sequence (P42356 whole entry): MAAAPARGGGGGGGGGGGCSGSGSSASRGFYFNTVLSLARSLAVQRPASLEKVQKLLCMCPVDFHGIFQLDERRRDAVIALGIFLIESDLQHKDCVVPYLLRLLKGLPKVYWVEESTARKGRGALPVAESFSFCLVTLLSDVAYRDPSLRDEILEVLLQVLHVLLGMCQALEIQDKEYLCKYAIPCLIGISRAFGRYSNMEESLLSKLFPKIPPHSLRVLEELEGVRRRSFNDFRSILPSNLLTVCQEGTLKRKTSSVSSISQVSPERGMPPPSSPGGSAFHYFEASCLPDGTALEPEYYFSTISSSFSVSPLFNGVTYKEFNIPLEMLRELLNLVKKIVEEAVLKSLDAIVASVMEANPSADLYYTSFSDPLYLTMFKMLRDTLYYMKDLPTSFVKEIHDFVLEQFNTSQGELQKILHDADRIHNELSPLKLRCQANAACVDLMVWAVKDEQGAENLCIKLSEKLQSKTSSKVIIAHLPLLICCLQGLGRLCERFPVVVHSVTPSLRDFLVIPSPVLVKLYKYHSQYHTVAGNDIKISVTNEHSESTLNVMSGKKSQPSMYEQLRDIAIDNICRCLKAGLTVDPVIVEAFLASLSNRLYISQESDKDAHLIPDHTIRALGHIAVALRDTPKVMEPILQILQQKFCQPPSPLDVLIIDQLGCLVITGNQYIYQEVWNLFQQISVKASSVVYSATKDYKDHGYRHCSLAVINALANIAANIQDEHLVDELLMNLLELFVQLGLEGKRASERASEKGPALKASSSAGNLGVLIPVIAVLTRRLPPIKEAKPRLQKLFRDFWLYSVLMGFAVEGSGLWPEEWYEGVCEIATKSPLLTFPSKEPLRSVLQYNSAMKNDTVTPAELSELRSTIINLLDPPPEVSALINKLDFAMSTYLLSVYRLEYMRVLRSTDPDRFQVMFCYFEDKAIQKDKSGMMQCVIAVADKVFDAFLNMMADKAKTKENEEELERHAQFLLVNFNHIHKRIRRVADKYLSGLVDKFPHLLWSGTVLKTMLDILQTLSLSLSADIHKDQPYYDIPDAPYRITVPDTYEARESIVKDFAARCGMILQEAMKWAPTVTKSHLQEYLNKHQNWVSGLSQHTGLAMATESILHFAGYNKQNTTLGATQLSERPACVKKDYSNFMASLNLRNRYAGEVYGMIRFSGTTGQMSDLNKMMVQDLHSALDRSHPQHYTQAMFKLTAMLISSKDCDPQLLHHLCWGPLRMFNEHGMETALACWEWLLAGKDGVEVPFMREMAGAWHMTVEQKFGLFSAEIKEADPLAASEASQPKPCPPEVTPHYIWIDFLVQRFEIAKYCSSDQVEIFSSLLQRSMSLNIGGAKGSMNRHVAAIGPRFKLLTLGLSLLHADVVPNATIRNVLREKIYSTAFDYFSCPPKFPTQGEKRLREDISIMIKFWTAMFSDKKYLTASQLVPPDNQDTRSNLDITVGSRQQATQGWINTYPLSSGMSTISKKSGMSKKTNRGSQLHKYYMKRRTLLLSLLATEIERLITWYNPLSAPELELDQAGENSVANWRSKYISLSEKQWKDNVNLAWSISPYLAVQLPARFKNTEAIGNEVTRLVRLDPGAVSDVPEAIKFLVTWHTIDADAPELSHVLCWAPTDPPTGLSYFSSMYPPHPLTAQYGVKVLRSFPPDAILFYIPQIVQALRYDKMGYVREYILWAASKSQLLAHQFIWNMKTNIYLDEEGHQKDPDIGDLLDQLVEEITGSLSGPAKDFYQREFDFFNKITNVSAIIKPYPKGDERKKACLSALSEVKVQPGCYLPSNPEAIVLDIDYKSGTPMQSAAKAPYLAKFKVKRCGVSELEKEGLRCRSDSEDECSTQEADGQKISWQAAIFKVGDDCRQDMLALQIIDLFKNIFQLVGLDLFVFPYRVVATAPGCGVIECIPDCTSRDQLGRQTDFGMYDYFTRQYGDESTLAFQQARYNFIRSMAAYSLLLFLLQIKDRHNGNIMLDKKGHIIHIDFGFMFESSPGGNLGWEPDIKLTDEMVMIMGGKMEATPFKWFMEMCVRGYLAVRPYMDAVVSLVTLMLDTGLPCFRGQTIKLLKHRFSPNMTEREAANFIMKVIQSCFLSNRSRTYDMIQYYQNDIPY
Chain of PI4K2β (Q8TCG2 whole entry): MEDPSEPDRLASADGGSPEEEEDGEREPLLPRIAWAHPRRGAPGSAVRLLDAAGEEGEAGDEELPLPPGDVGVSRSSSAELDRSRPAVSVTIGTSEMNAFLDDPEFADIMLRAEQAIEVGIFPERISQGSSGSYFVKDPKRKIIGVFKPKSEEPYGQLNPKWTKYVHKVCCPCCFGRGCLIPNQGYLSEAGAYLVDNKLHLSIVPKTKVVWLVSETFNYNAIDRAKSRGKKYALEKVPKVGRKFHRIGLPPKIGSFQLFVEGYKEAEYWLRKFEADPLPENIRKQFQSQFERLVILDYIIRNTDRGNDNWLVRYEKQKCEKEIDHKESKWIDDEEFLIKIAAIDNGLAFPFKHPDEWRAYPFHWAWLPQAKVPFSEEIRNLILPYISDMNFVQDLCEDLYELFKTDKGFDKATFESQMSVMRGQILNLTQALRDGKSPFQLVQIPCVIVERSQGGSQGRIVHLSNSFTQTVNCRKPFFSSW
Chain of PI4K2α (Q9BTU6 whole entry): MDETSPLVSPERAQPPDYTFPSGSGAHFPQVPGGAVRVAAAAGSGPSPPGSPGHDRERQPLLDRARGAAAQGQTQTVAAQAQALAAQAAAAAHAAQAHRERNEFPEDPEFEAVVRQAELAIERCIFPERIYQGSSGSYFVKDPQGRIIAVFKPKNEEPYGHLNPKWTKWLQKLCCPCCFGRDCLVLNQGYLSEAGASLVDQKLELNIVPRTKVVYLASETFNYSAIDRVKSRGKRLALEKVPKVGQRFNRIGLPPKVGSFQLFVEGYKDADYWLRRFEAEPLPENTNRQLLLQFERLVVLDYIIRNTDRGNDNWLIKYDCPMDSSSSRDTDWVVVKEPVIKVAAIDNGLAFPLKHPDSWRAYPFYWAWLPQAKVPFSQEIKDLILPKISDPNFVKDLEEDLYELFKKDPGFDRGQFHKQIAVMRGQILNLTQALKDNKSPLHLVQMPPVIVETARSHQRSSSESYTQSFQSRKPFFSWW

For the compound `COc1ccc(-c2sc(NC(C)C3CCOCC3)nc2C)cc1S(=O)(=O)Nc1ccccc1Cl` (stereo not shown) [Compound B], the values for the IC50 in data set [1] and in data set [3] were greater than 10000 nM and less than 100 nM, respectively. The values for the CC50 in data set [2] and in [10] were 131000 nM and greater than 100000 nM, respectively. Further, the PI4P levels result in data set [4] was “decreased PI4P levels in a dose-dependent fashion”. The EC50 in data set [5] was determined as 19 nM; in data set [6], 2100 nM. For the same compound, the survival result in data set [7] is reported as “A dose response was observed in survival”. Also, the “colony formation in soft agar and on plastic” value in data set [8] is “reduced”. Besides, the metastases result in [9] is given as “No metastases were detectable”. Besides, the “sizes of the primary tumors vs vehicle alone” value in data set [9] is reported as “smaller”. Besides, in data set [11], the “cell proliferation in monolayer culture” value was “reduced cell proliferation in monolayer culture”. The “migration and invasion in Boyden chambers” value in [12] was “reduced”.

On to `COc1ccc(-c2sc(NC(=O)C(C)(C)C)nc2C)cc1S(=O)(=O)Nc1ccc(O)cc1` [PI4KIIIbeta-IN-10], for which the “inhibition of PI4K2α” value in data set [13] is recorded as less than 20%. The “inhibition of PI4K2β” value in data set [14] is on record as less than 20%. In addition, the PI4P levels result in data set [4] is “decreased PI4P levels in a dose-dependent fashion”. Further, in data set [15], the “inhibition of PI3Kβ” value is listed as less than 20%. The “colony formation in soft agar and on plastic” value in data set [8] is on record as “reduced”. The IC50 in [16] is roughly 1000 nM; in data set [17] it was roughly 10000 nM. Besides, the “cell proliferation in monolayer culture” value in data set [11] is “reduced cell proliferation in monolayer culture”. For the same compound, the “migration and invasion in Boyden chambers” value in data set [12] is “reduced”.

The IC50 is the midpoint of a concentration-inhibition curve. A word on the CC50: it is the concentration that lowers cell viability or growth by half. Read a high CC50 as lower toxicity to the cells. A word on the EC50: it is the concentration giving half of the maximal effect.
